Results: US9040565B2, “1H-benzimidazole-5-carboxamides as anti-inflammatory agents” (Orexo AB, priority 2008, dated 2015)

target: T1, recombinant human mPGES-1 (Homo sapiens, UniProt O14684); experiment: mPGES-1 inhibition, HTRF detection of PGE2 (Biological Test); format: biochemical
T1 construct: made in house; host or cells: Rosetta E. coli (microsomal/membrane fraction)
T1 sequence (O14684 1-152): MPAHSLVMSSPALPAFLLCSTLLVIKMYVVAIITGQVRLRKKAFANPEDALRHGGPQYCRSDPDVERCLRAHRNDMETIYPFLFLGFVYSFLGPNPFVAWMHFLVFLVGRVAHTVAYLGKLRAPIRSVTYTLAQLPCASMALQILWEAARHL
Protocol: Microsomes from Rosetta E. coli bacteria expressing recombinant human mPGES-1 is dissolved in 0.1 M KPi pH 7.4 buffer containing 2.5 mM GSH. 50 μl of the enzyme is subsequently dispensed in a 384-well plate. 0.5 μl of the inhibitor dissolved in DMSO at is thereafter added to each well and incubated for 25 minutes at room temperature.
Subsequently, 2 μl of PGH2 dissolved in an appropriate solvent is added to each well and after one minute the acidified stop solution containing FeCl2 is added. 4 μl of the total volume is transferred to a separate plate and diluted 750-fold in two separate steps before HTRF detection of PGE2.
The HTRf detection is performed by the use of a commercially available kit from CisBio essentially according to the manufacturer's protocol. Briefly, 10 μl of the diluted sample is transferred to a white 384-well plate. 5 μl of d2 and 5 μl Eu3+-Cryptate labeled anti-PGE2 is added to each well containing samples by the use of a Multidrop. The plate is covered with a plastic self-adhesive film, centrifuged at 1200 rpm for 1 minute and subsequently stored at +4° C. over night.
After over night incubation the fluorescence is measured by the use of an appropriate microplate reader. The fluorescence of europium cryptate, and d2 are measured using the following excitation and emission wavelength, europium cryptate: λmax^ex=307 nm, λmax^em=620 nm and d2: λmax^ex=620 nm, λmax^em=665 nm), respectively. The extent of the specific FRET is measured as a ratio of the emission intensity at 665 nm vs. that at 620 nm. A standard curve using synthetic PGE2 is used to quantify the amount of PGE2 in unknown samples.

Question: `COc1cc2[nH]c(Nc3c(Cl)cncc3Cl)nc2cc1C(=O)Nc1cc(C(F)(F)F)ccn1` [Example 680, 2-(3,5-Dichloropyridin-4-ylamino)-N-(4-trifluoromethyl-pyridin-2-yl)-6-methoxy-1H-benzimidazole-5-carboxamide] was tested. Which inhibition at 10 µM did it give?
Answer: Its inhibition at 10 µM is 100%.

Question: For `CCOc1cc2[nH]c(Nc3c(Cl)cncc3Cl)nc2cc1C(=O)NCc1ncccc1C(F)(F)F` [Example 667, 2-(3,5-Dichloropyridin-4-ylamino)-N-((3-trifluoromethyl-pyridin-2-yl)-methyl)-6-ethoxy-1H-benzimidazole-5-carboxamide], which inhibition at 10 µM is on record?
Answer: The inhibition at 10 µM was 99%.

Question: Which inhibition at 10 µM does the source give for `O=C(Nc1ccc(Br)cc1)c1ccc2[nH]c(Nc3ccncc3Cl)nc2c1` [Example 566, N-(4-Bromophenyl)-2-(3-chloropyridin-4-ylamino)-1H-benzimidazole-5-carboxamide] here?
Answer: Its inhibition at 10 µM is 77%.

Question: Which inhibition at 10 µM does the source give for `COc1cc2[nH]c(Nc3c(Cl)cncc3Cl)nc2cc1C(=O)Nc1cc(C(F)(F)F)cc(C)n1` [Example 681, 2-(3,5-Dichloro-pyridin-4-ylamino)-6-methoxy-N-(6-methyl-4-trifluoromethyl-pyridin-2-yl)-1H-benzimidazole-5-carboxamide] here?
Answer: The inhibition at 10 µM was 100%.

Question: With `Cc1ccnc(Cl)c1Nc1nc2ccc(C(=O)Nc3cccc(Cl)c3)cc2[nH]1` [Example 521, 2-(2-Chloro-4-methylpyridin-3-ylamino)-N-(3-chlorophenyl)-1H-benzimidazole-5-carboxamide] as the compound, how does the inhibition at 10 µM read?
Answer: Its inhibition at 10 µM is 95%.

Question: `CCOc1cc2[nH]c(Nc3c(Cl)cncc3Cl)nc2cc1C(=O)NCc1ccccc1C(F)(F)F` [Example 689, 2-(3,5-Dichloropyridin-4-ylamino)-N-((2-trifluoromethyl-phen-1-yl)-methyl)-6-ethoxy-1H-benzimidazole-5-carboxamide] was tested. Which inhibition at 10 µM did it give?
Answer: The inhibition at 10 µM was 100%.

Question: For `O=C(Nc1ccc(Br)cc1)c1cc2nc(Nc3c(Cl)cncc3Cl)[nH]c2cc1OCC(F)(F)F` [Example 676, 2-(3,5-Dichloropyridin-4-ylamino)-N-(4-bromophenyl)-6-(2,2,2-trifluoroethoxy)-1H-benzimidazole-5-carboxamide], which inhibition at 10 µM is on record?
Answer: The inhibition at 10 µM was 100%.

Question: For `O=C(Nc1cccc(Cl)c1)c1ccc2nc(Nc3c(Cl)cncc3Cl)[nH]c2c1` [Example 434, N-(3-Chlorophenyl)-2-(3,5-dichloropyridin-4-ylamino)-1H-benzimidazole-5-carboxamide], which inhibition at 10 µM is on record?
Answer: Its inhibition at 10 µM is 98%.

Question: `COc1cc2c(cc1C(=O)Nc1ccc(Br)cc1)nc(Nc1c(Cl)cncc1Cl)n2C` [Example 679, 2-(3,5-Dichloro-pyridin-4-ylamino)-6-methoxy-N-(4-bromophenyl)-1-methyl-1H-benzimidazole-5-carboxamide] was tested. Which inhibition at 10 µM did it give?
Answer: Its inhibition at 10 µM is 100%.

Question: With `Cn1c(Nc2c(Cl)cncc2Cl)nc2cc(C(=O)NCc3ncccc3C(F)(F)F)ccc21` [Example 553, 2-(3,5-Dichloropyridin-4-ylamino)-1-methyl-N-((3-trifluoromethyl-pyridin-2-yl)methyl)-1H-benzimidazole-5-carboxamide] as the compound, how does the inhibition at 10 µM read?
Answer: The inhibition at 10 µM was 53%.

Question: `CCOc1cc2[nH]c(Nc3c(Cl)cncc3Cl)nc2cc1C(=O)N[C@H]1CC[C@H](C(F)(F)F)CC1` [Example 690, 2-(3,5-Dichloropyridin-4-ylamino)-N-(trans-4-trifluoromethyl-cyclohex-1-yl)-6-ethoxy-1H-benzimidazole-5-carboxamide] was tested. Which inhibition at 10 µM did it give?
Answer: Its inhibition at 10 µM is 100%.

Question: `O=C(Nc1ccc(Br)cc1)c1cc2nc(Nc3c(Cl)cncc3Cl)[nH]c2cc1OC1CCOC1` (stereo not drawn) [Example 659, 2-(3,5-Dichloro-pyridin-4-yl-amino)-6-(tetrahydrofuran-3-yl-oxy)-N-(4-bromo-phenyl)-1H-benzimidazole-5-carboxamide] was tested. Which inhibition at 10 µM did it give?
Answer: The inhibition at 10 µM was 98%.

Question: How did the inhibition at 10 µM turn out when `O=C(NCc1ccccc1C(F)(F)F)c1ccc2[nH]c(Nc3c(Cl)cncc3Cl)nc2c1` [Example 493, 2-(3,5-Dichloropyridin-4-ylamino)-N-(2-trifluoromethyl-benzyl)-1H-benzimidazole-5-carboxamide] was run?
Answer: Its inhibition at 10 µM is 100%.

Question: How did the inhibition at 10 µM turn out when `O=C(Nc1ccc(F)c(C(F)F)n1)c1cc2nc(Nc3c(Cl)cncc3Cl)[nH]c2cc1OCC(F)(F)F` [Example 707, 2-(3,5-Dichloropyridin-4-ylamino)-N-(6-difluoromethyl-5-fluoro-pyridin-2-yl)-6-(2,2,2-trifluoroethoxy)-1H-benzimidazole-6-carboxamide] was run?
Answer: The inhibition at 10 µM was 100%.

Question: `Cc1cnccc1Nc1nc2cc(C(=O)Nc3ccc(Br)cc3)ccc2n1C` [Example 567, N-(4-Bromophenyl)-1-methyl-2-(3-methylpyridin-4-ylamino)-1H-benzimidazole-5-carboxamide] was tested. Which inhibition at 10 µM did it give?
Answer: The inhibition at 10 µM was 80%.

Question: With `CCOc1cc2c(cc1C(=O)Nc1cc(C(F)(F)F)ccn1)nc(Nc1c(Cl)cncc1Cl)n2CC(F)(F)F` [Example 705] as the compound, how does the inhibition at 10 µM read?
Answer: Its inhibition at 10 µM is 94%.

Question: How did the inhibition at 10 µM turn out when `Cn1c(Nc2c(Cl)cncc2Cl)nc2cc(C(=O)NC3CCC(C)(C)CC3)c(F)cc21` [Example 674, 2-(3,5-Dichloropyridin-4-ylamino)-N-(4,4-dimethyl-cyclohex-1-yl)-6-fluoro-1-methyl-1H-benzimidazole-5-carboxamide] was run?
Answer: The inhibition at 10 µM was 100%.

Question: With `Cn1c(Nc2c(Cl)cncc2Cl)nc2cc(C(=O)NCc3ccccc3C(F)(F)F)c(OC3CCOC3)cc21` (stereo not drawn) [Example 665, 2-(3,5-Dichloropyridin-4-ylamino)-N-((2-trifluoromethyl-phen-1-yl)-methyl)-6-(tetrahydrofuran-3-yl-oxy)-1-methyl-1H-benzimidazole-5-carboxamide] as the compound, how does the inhibition at 10 µM read?
Answer: The inhibition at 10 µM was 99%.

Question: For `CN(C)c1cc(C(F)(F)F)cc(NC(=O)c2cc3nc(Nc4c(Cl)cncc4Cl)[nH]c3cc2OCC(F)(F)F)n1` [Example 656, 2-(3,5-Dichloro-pyridin-4-yl-amino)-6-(2,2,2-trifluoroethoxy)-N-(6-dimethylamino-4-trifluoromethyl-pyridin-2-yl)-1H-benzimidazole-5-carboxamide], which inhibition at 10 µM is on record?
Answer: Its inhibition at 10 µM is 96%.

Question: Which inhibition at 10 µM does the source give for `O=C(Nc1ccc(Br)cc1)c1ccc2nc(Nc3c(Cl)cncc3Cl)[nH]c2c1` [Example 388, N-(4-Bromophenyl)-2-(3,5-dichloropyridin-4-ylamino)-1H-benzimidazole-5-carboxamide] here?
Answer: Its inhibition at 10 µM is 100%.

Question: For `CC1(C)CCC(NC(=O)c2cc3nc(Nc4c(Cl)cncc4Cl)[nH]c3cc2F)CC1` [Example 673, 2-(3,5-Dichloro-pyridin-4-yl-amino)-6-fluoro-N-(4,4-dimethyl-cyclohex-1-yl)-1H-benzimidazole-5-carboxamide], which inhibition at 10 µM is on record?
Answer: The inhibition at 10 µM was 100%.

Question: Which inhibition at 10 µM does the source give for `CCOc1cc2c(cc1C(=O)NC1CCC(C)(C)CC1)nc(Nc1c(Cl)cncc1Cl)n2C` [Example 670, 2-(3,5-Dichloropyridin-4-ylamino)-N-(4,4-dimethyl-cyclohexyl)-6-ethoxy-1-methyl-1H-benzimidazole-5-carboxamide] here?
Answer: The inhibition at 10 µM was 100%.

Question: With `CCOc1cc2[nH]c(Nc3c(Cl)cncc3Cl)nc2cc1C(=O)NC1CCC(C)(C)CC1` [Example 669, 2-(3,5-Dichloropyridin-4-ylamino)-N-(4,4-dimethyl-cyclohexyl)-6-ethoxy-1H-benzimidazole-5-carboxamide] as the compound, how does the inhibition at 10 µM read?
Answer: The inhibition at 10 µM was 100%.

Question: Which inhibition at 10 µM does the source give for `CCOc1cc2[nH]c(Nc3c(Cl)cncc3Cl)nc2cc1C(=O)Nc1cc(C(F)(F)F)ccn1` [Example 694, 2-(3,5-Dichloropyridin-4-ylamino)-N-(4-trifluoromethyl-pyridin-2-yl)-6-ethoxy-1H-benzimidazole-6-carboxamide] here?
Answer: Its inhibition at 10 µM is 98%.
